Measurements from US20170210751A1, “PRMT5 INHIBITORS AND USES THEREOF” (Epizyme, Inc., priority 2014, published 2017).

target: T1, PRMT5/MEP50 (Homo sapiens, UniProt O14744); assay: PRMT5 Biochemical Assay (PRMT5/MEP50 enzyme assay on peptide substrate, 3H-SAM Flashplate); settings: PRMT5/MEP50 4 nM, 3H-SAM 75 nM, peptide 40 nM, 30 min preincubation at 25 degrees Celsius
T1 construct: Flag-PRMT5; made in house; host or cells: Spodoptera frugiperda (SF9) insect cells, baculovirus (pDEST8)
Summary of the method: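 FLAG-PRMT5/His-MEP50 from Sf9 cells (4 nM) preincubated 30 min at 25 °C with compounds, then reacted with 75 nM 3H-SAM and 40 nM biotinylated histone H4 1-15 peptide in Bicine pH 7.6, 1% DMSO. Stopped with 600 uM cold SAM; streptavidin Flashplate capture, scintillation counts; % inhibition fitted to 3- or 4-parameter curve.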

T1 sequence (O14744 with tags, fused parts or gaps): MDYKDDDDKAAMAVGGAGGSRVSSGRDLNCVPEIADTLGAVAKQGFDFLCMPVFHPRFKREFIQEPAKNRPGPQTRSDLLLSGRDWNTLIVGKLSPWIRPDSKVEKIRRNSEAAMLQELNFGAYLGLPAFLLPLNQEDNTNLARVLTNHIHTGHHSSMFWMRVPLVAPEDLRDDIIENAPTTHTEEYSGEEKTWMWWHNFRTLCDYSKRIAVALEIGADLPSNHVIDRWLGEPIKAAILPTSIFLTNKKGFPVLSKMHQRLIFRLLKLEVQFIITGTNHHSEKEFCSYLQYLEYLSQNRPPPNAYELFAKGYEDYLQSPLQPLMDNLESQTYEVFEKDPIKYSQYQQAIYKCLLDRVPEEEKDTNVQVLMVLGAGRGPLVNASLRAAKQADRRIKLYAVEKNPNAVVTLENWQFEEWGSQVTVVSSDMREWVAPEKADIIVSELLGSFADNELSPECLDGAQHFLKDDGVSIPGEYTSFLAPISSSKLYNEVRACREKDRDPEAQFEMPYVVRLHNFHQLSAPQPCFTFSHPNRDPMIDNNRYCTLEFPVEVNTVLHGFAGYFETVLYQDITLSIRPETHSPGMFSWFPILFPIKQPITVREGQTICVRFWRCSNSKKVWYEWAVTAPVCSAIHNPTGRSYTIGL
T1 sequence (Q9BQA1 with tags, fused parts or gaps partner limits assumed): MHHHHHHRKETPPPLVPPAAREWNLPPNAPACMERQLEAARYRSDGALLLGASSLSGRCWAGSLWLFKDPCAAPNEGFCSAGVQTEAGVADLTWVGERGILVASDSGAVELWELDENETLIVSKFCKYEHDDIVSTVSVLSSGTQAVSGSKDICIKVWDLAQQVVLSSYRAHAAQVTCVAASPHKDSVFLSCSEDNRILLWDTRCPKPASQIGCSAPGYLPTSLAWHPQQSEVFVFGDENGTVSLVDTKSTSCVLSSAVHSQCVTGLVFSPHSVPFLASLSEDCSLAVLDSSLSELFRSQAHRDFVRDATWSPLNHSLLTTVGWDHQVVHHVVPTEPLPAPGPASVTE

SMILES	IC50 [µM]
O=C(COc1cccc2cccnc12)NCC(O)CN1CCc2ccsc2C1 (stereo not drawn) [Compound 1-5, N-(2-hydroxy-3-{4H,5H,6H,7H-thieno[2,3-c]pyridin-6-yl}propyl)-2-(quinolin-8-yloxy)acetamide]	< 0.1
CC(=O)N1CC(Nc2cc(C(=O)NC[C@H](O)CN3CCc4c(cnn4C)C3)ncn2)C1 [Compound 3-29]	> 10
CC(=O)N1CCC(Nc2cc(C(=O)NC[C@H](O)CN3CCc4ncn(C)c4C3)ncn2)CC1 [Compound 3-30, (S)-6-((1-acetylpiperidin-4-yl)amino)-N-(2-hydroxy-3-(3-methyl-6,7-dihydro-3H-imidazo[4,5-c]pyridin-5(4H)-yl)propyl)pyrimidine-4-carboxamide]	> 10
